Measurements taken from ChEMBL document CHEMBL5696442, “Discovery of type II inhibitors of TGFβ-activated kinase 1 (TAK1) and mitogen-activated protein kinase kinase kinase kinase 2 (MAP4K2)” (J Med Chem, 2015).
Active and inactive are the calls of the source. The rule behind the calls is not given here.

Legend:
[1] = biological target: Serine/threonine-protein kinase 25 (Homo sapiens) (UniProt O00506); test: Inhibition of YSK1 ATP labeling site in human Huh-7 cells at 10 uM by KiNativ Profiling analysis relative to control; type: cell-based
[2] = biological target: Discoidin domain-containing receptor 2 (Homo sapiens) (UniProt Q16832); test: Inhibition of DDR2 (unknown origin) at 10 uM by Ambit Kinomescan binding assay relative to control; values are per cent of control
[3] = system: Mast/stem cell growth factor receptor Kit (Homo sapiens), P10721 [V559D]; test: Inhibition of KIT V559D mutant (unknown origin) at 10 uM by Ambit Kinomescan binding assay relative to control
[4] = biological target: Tyrosine-protein kinase CSK (Homo sapiens, UniProt P41240); test: Inhibition of CSK ACT labeling site harbouring VSDFGLTKEASSTQDTGK in human A-375 cells at 0.5 uM by KiNativ Profiling analysis relative to control; type: cell-based
[5] = biological target: T1, Serine/threonine-protein kinase TAO2 (Homo sapiens) (UniProt Q9UL54); test: Inhibition of TAO2 K2 labeling site in human Huh-7 cells at 1 uM by KiNativ Profiling analysis relative to control; type: cell-based
T1 sequence (whole entry): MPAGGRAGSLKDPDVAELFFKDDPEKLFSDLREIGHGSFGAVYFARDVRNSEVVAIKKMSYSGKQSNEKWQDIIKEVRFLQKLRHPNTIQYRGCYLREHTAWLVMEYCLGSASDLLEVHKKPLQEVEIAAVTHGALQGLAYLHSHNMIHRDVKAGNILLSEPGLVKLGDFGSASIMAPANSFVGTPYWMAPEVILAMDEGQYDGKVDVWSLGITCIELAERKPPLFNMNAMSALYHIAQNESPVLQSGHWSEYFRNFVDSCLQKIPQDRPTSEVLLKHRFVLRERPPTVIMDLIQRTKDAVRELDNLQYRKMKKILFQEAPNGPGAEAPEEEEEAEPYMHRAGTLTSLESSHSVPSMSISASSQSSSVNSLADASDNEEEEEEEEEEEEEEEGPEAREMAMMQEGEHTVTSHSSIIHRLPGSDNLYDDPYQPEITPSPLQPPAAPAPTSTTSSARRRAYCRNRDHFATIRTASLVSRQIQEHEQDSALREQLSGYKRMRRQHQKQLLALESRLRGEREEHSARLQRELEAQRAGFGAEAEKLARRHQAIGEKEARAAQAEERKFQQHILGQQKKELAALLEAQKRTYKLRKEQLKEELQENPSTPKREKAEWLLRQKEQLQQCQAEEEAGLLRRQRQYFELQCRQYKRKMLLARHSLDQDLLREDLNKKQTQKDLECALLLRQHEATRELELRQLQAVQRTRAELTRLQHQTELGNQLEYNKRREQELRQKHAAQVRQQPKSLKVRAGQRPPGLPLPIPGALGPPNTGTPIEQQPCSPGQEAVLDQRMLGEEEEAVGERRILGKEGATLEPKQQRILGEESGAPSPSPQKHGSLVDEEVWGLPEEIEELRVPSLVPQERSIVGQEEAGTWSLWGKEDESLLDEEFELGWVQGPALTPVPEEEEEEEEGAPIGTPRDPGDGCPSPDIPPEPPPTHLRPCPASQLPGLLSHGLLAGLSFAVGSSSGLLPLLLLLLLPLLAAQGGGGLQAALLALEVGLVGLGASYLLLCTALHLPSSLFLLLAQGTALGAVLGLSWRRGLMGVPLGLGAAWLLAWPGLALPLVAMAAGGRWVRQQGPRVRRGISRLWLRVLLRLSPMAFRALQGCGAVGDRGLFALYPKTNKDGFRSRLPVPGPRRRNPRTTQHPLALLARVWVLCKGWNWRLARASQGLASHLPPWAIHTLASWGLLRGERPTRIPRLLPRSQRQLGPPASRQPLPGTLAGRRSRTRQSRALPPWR

[6] = biological target: Tyrosine-protein kinase JAK1 (Homo sapiens) (UniProt P23458); test: Inhibition of JAK1 Domain 2 ACT labeling site in human Huh-7 cells at 10 uM by KiNativ Profiling analysis relative to control; type: cell-based
[7] = biological target: Serine/threonine-protein kinase MRCK beta (Homo sapiens) (UniProt Q9Y5S2); test: Inhibition of MRCKB (unknown origin) at 10 uM by Ambit Kinomescan binding assay
[8] = biological target: Serine/threonine-protein kinase 17B (Homo sapiens) (UniProt O94768); test: Inhibition of DRAK2 (unknown origin) at 1 uM by Ambit Kinomescan binding assay relative to control; values are per cent of control
[9] = biological target: Mitogen-activated protein kinase kinase kinase 19 (Homo sapiens) (UniProt Q56UN5); test: Inhibition of YSK4 (unknown origin) at 1 uM by Ambit Kinomescan binding assay relative to control; values are per cent of control
[10] = biological target: MAP/microtubule affinity-regulating kinase 4 (Homo sapiens) (UniProt Q96L34); test: Inhibition of MARK4 (unknown origin) at 1 uM by Ambit Kinomescan binding assay relative to control
[11] = biological target: T2, Scaffold protein ILK (Homo sapiens) (UniProt Q13418); test: Inhibition of ILK Protein Kinase Domain in human A-375 cells at 0.05 uM by KiNativ Profiling analysis relative to control; type: cell-based
T2 sequence (whole entry): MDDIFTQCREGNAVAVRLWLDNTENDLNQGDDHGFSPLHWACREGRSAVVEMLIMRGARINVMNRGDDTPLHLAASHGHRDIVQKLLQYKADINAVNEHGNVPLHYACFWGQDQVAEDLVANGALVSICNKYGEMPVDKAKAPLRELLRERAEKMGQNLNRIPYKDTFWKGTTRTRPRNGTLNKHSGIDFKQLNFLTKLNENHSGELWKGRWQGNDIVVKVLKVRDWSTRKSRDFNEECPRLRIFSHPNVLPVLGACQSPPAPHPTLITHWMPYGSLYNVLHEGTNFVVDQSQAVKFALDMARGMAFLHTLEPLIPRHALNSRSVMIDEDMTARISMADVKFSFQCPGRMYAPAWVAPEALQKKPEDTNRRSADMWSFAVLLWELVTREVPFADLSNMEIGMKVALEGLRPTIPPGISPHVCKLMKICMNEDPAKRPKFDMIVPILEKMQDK

Serine/threonine-protein kinase 17B (Homo sapiens), sequence (O94768 whole entry): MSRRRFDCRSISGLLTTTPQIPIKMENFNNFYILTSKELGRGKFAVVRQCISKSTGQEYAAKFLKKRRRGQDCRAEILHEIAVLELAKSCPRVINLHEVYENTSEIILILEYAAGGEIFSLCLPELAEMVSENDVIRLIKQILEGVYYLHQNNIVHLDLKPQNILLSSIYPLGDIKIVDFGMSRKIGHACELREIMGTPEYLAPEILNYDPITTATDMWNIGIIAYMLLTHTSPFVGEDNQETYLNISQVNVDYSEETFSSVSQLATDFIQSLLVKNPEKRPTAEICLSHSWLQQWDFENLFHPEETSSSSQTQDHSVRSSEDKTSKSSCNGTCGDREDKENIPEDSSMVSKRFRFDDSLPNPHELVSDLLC
Mitogen-activated protein kinase kinase kinase 19 (Homo sapiens), sequence (Q56UN5 whole entry): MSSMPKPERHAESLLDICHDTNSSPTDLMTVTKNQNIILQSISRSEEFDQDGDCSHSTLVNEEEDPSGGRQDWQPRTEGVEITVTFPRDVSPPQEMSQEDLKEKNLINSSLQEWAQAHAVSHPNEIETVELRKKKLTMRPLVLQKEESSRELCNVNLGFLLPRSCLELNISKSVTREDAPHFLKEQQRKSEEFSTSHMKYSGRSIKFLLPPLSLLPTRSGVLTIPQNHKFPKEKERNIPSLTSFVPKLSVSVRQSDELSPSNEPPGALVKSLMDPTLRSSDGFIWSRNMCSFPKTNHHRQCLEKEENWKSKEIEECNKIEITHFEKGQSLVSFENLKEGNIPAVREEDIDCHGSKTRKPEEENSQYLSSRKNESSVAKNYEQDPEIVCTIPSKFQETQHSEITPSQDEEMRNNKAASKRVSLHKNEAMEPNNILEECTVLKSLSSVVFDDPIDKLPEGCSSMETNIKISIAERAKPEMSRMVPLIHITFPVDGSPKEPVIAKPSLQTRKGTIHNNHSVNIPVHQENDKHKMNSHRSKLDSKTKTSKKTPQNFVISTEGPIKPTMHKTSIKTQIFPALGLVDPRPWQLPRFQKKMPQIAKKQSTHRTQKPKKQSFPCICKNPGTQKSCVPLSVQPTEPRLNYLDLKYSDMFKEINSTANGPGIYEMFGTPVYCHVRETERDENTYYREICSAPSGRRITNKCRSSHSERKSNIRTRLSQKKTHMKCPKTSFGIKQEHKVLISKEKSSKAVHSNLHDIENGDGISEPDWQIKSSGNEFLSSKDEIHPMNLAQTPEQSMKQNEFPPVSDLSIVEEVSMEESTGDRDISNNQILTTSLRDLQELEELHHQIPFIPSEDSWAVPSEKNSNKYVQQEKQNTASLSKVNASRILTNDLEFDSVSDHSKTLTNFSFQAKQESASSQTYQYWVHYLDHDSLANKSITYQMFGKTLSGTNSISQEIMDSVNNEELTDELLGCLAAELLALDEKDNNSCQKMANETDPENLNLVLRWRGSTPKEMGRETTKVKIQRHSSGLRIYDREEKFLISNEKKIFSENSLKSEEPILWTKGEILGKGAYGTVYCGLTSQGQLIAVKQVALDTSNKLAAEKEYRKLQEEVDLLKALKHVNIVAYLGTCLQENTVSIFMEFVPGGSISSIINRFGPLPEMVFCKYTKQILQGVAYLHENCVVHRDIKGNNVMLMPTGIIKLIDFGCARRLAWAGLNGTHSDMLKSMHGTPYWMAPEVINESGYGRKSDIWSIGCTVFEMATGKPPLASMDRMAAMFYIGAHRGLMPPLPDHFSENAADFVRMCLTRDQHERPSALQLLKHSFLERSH
Serine/threonine-protein kinase MRCK beta (Homo sapiens), sequence (Q9Y5S2 whole entry): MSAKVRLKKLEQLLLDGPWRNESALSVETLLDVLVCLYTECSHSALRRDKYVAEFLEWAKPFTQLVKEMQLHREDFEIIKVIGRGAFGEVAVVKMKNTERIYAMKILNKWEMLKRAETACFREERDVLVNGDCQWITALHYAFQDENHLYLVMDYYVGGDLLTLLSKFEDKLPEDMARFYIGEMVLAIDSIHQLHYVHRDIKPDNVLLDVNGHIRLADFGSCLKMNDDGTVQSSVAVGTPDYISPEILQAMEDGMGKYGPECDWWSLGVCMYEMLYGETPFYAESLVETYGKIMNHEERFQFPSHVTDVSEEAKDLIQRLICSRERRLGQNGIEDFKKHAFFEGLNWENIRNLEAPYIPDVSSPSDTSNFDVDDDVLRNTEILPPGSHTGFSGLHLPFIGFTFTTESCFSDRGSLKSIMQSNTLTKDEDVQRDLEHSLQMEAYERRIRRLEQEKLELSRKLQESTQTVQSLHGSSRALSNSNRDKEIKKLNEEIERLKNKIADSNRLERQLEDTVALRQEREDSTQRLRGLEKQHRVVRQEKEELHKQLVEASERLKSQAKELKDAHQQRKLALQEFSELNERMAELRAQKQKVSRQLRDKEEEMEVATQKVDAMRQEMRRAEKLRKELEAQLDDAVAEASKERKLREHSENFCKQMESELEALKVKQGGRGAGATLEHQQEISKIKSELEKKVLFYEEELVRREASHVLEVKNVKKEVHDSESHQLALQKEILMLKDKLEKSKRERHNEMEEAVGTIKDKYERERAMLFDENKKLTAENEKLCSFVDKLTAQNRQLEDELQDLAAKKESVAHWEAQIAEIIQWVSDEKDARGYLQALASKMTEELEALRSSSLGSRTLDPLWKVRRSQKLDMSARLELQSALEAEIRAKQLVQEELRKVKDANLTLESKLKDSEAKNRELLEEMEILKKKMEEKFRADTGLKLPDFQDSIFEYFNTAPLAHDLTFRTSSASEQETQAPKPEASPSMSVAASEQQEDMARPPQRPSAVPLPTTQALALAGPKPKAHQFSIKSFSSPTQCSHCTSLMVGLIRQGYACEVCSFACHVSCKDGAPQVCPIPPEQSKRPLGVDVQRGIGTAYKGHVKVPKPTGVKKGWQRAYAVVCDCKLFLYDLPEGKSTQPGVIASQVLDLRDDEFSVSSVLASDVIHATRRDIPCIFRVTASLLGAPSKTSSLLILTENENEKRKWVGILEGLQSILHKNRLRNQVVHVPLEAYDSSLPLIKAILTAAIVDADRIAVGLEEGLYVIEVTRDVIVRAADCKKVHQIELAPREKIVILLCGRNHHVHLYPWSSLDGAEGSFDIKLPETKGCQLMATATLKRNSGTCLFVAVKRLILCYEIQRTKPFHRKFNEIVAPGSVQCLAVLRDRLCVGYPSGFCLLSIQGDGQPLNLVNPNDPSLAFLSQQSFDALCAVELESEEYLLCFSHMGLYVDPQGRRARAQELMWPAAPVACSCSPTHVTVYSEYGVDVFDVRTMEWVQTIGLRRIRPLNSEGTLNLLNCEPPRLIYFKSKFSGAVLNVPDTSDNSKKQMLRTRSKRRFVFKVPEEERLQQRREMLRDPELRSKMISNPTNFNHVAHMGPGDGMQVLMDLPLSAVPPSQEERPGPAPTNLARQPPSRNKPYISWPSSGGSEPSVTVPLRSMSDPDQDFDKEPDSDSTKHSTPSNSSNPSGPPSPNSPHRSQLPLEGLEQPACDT
MAP/microtubule affinity-regulating kinase 4 (Homo sapiens), sequence (Q96L34 whole entry, the tested form may be a part): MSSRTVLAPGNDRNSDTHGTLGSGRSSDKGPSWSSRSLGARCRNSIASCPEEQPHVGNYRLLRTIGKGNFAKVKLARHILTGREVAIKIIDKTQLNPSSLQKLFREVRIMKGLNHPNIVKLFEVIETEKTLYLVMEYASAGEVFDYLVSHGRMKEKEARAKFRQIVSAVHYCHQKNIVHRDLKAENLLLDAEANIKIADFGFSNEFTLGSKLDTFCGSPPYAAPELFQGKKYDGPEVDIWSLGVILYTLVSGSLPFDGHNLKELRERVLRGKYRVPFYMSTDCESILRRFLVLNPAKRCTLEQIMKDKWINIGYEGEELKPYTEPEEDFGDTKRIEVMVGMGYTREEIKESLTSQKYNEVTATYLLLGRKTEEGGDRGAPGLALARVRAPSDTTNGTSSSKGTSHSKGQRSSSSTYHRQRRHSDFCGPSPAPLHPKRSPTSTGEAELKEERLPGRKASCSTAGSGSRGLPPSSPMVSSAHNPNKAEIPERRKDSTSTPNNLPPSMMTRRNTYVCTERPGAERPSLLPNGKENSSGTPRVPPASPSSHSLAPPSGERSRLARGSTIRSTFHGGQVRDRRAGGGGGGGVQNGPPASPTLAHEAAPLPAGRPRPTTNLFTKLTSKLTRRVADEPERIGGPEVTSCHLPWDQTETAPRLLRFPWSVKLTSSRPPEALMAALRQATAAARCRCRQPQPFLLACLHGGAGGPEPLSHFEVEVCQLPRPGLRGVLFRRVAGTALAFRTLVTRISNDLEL
Tyrosine-protein kinase CSK, sequence (P41240 2-450 limits assumed): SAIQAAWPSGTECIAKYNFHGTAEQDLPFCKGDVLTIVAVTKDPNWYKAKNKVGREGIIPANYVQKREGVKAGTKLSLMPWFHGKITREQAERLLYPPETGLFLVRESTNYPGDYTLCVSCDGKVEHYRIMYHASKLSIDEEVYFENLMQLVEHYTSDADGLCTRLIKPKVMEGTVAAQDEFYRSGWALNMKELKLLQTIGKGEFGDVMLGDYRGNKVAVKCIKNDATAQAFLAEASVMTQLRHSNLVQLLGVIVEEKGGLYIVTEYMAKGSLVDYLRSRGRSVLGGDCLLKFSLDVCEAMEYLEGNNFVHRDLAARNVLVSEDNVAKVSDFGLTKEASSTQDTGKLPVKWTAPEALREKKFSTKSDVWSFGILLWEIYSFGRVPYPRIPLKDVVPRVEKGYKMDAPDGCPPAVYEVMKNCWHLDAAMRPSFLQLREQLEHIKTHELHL
Serine/threonine-protein kinase 25 (Homo sapiens), sequence (O00506 whole entry, looked up, the tested form may be a part): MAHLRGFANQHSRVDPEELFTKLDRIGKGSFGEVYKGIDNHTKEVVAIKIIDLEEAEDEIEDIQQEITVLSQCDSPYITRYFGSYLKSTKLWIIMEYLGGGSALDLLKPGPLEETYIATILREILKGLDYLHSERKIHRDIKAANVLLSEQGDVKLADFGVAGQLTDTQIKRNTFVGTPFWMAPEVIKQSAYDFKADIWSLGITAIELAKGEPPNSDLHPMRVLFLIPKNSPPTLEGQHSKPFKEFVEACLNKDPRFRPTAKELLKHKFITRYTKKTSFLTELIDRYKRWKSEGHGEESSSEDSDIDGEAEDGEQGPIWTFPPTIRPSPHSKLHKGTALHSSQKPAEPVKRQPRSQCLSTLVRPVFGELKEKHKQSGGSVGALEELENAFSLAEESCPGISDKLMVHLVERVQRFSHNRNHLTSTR

Compound	inhibition [1] [%]	percent of control [2] [%]	inhibition [3] [%]	inhibition [4] [%]	inhibition [5] [%]	inhibition [6] [%]	inhibition [7]	residual activity [8] [%]	percent of control [9] [%]	inhibition [10] [%]	inhibition [11] [%]
CCN1CCN(Cc2ccc(NC(=O)c3ccc(C)c(Oc4ccnc5[nH]ccc45)c3)cc2C(F)(F)F)CC1	25.3	5.1	0	49.8	4.7	41.1	inactive	–	–	–	–
CCN1CCN(Cc2ccc(NC(=O)c3ccc(C)c(/C=C/c4cnc5[nH]ccc5c4OC)c3)cc2C(F)(F)F)CC1	–	–	–	–	–	–	–	16	1.1	81	-9.6
